According to publication PMC5413348, “Structure of Fam20A reveals a pseudokinase featuring a unique disulfide pattern and inverted ATP-binding” (eLife, 2017):
Numbering of substitutions follows the chain as printed. Where two headings read alike, the source gives them in different places.

Experiments:
Fam20A [1] = biological target: T1, Fam20A (Homo sapiens, UniProt Q96MK3); assay: thermal stability shift assay (SYPRO Orange), dTm vs concentration fit; format: binding; conditions: 20 mM HEPES pH 7.5, 100 mM NaCl
T1 construct: residues 69-529; secreted from Hi5 insect cells; N-terminal 6xHis-SUMO tag removed by TEV protease; dimer in crystal, concentration-dependent dimer/oligomer in solution
T1 sequence (Q96MK3 69-529): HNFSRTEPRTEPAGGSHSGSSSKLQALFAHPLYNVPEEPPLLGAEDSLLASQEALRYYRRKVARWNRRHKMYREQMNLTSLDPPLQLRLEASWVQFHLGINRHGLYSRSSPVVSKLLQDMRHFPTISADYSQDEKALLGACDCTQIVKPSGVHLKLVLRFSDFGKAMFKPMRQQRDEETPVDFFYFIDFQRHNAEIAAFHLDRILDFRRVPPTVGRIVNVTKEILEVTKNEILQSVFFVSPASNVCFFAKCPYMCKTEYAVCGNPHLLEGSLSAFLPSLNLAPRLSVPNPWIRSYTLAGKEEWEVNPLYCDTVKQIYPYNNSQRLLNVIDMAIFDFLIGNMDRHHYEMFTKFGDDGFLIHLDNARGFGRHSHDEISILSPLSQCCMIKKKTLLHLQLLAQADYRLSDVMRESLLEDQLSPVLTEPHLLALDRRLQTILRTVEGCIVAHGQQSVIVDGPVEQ

Fam20A [2] = biological target: T2, Fam20A (Homo sapiens, UniProt Q96MK3, D430A); assay: thermal stability shift assay (SYPRO Orange); format: binding; conditions: 100 μM ATP; 20 mM HEPES pH 7.5, 100 mM NaCl
T2 construct: residues 69-529; secreted from Hi5 insect cells; N-terminal 6xHis-SUMO tag removed by TEV protease; dimer in crystal, concentration-dependent dimer/oligomer in solution
T2 sequence (Q96MK3 69-529 D430A): T1 sequence (Q96MK3 69-529) with D362A

Fam20A [3] = biological target: T3, Fam20A (Homo sapiens, UniProt Q96MK3, K223A); assay: thermal stability shift assay (SYPRO Orange); format: binding; conditions: 100 μM ATP; 20 mM HEPES pH 7.5, 100 mM NaCl
T3 construct: residues 69-529; secreted from Hi5 insect cells; N-terminal 6xHis-SUMO tag removed by TEV protease; dimer in crystal, concentration-dependent dimer/oligomer in solution
T3 sequence (Q96MK3 69-529 K223A): T1 sequence (Q96MK3 69-529) with K155A

Fam20A [4] = biological target: T1, Fam20A; assay: thermal stability shift assay (SYPRO Orange); format: binding; conditions: 10 μM nucleotide; no metal ions; 20 mM HEPES pH 7.5, 100 mM NaCl
[5] = biological target: the molecule itself; assay: SEC; 1 mg or 100 µg purified Fam20A (both in 500 µl) on Superdex 200 increase 10/300 GL, 20 mM HEPES, pH 7.5, 100 mM NaCl

Molecule: Nc1ncnc2c1ncn2[C@@H]1O[C@H](COP(=O)(O)OP(=O)(O)O)[C@@H](O)[C@H]1O [ADP]
- Kd (Fam20A [1]; no cations): Fam20A prefers binding ATP over ADP (Figure 2D)

Molecule: Nc1ncnc2c1ncn2[C@@H]1O[C@H](COP(=O)(O)OP(=O)(O)OP(=O)(O)O)[C@@H](O)[C@H]1O [ATP]
- Kd (Fam20A [1]; no divalent cations, inverted orientation in crystal, read-out: Kd^app): 3 µM
- Tm (Fam20A [2]): with Ala has little effect on the ability of Fam20A to bind ATP
- Tm (Fam20A [3]): with Ala has little effect on the ability of Fam20A to bind ATP

Molecule: Nc1ccn([C@@H]2O[C@H](COP(=O)(O)OP(=O)(O)OP(=O)(O)O)[C@@H](O)[C@H]2O)c(=O)n1 [CTP]
- ΔTm (Fam20A [4]): Fam20A also binds other nucleoside triphosphates including GTP, CTP, and UTP

Molecule: Nc1nc2c(ncn2[C@@H]2O[C@H](COP(=O)(O)OP(=O)(O)OP(=O)(O)O)[C@@H](O)[C@H]2O)c(=O)[nH]1 [GTP]
- ΔTm (Fam20A [4]): Fam20A also binds other nucleoside triphosphates including GTP, CTP, and UTP

Molecule: O=c1ccn([C@@H]2O[C@H](COP(=O)(O)OP(=O)(O)OP(=O)(O)O)[C@@H](O)[C@H]2O)c(=O)[nH]1 [UTP]
- ΔTm (Fam20A [4]): Fam20A also binds other nucleoside triphosphates including GTP, CTP, and UTP

B1: Human Fam20A residues 69–529 (domain or fragment, UniProt Q96MK3 69-529, looked up)
chain: T1 sequence (Q96MK3 69-529)
notes: Fam20A, human, residues 69-529, secreted from a modified pI-secSUMOstar vector; the 6xHis-SUMO tag was removed by TEV protease; The only purified Fam20A construct that the methods describe; also called untagged Fam20A; purified Fam20A; source: Hi5 insect cells (baculovirus), conditioned medium, purified (Ni-NTA, Resource Q, Superdex 200); not shown: 6xHis, N-terminal, cleaved; SUMO, N-terminal, …
- binding result [5]: binds
